Assay results published in US20230124361A1, “SMALL MOLECULE STING ANTAGONISTS” (CURADEV PHARMA PVT. LTD., priority 2020, published 2023).

molecular target: T1, STING (Homo sapiens, UniProt Q86WV6, G230A/H232R/R293Q/R71H); assay: Reporter gene expression assay in THP1-Dual cells (IRF pathway Lucia luciferase, 2',3'-cGAMP stimulation); format: cell-based; settings: 10 min preincubation, 5 μM 2',3'-cGAMP, 20 hr, IRF reporter QUANTI-Luc, read-out: THP-1 (HAQ) Activity
T1 construct: host or cells: THP1-Dual cells (human THP-1 monocyte line with Lucia/SEAP reporters)
Experimental: Reporter Gene Expression Assay in THP-1 Cells
THP1-Dual™ cells (Invivogen) were derived from the human THP-1 monocyte cell line by stable integration of two inducible reporter constructs. As a result, THP1-Dual™ cells allow the simultaneous study of the IRF pathway, by assessing the activity of a secreted luciferase (Lucia) and the NF-κB pathway, by monitoring the activity of secreted SEAP. 5×10^4 THP1-Dual™ cells were seeded in 384-well plates in growth medium and preincubated with novel compounds for 10 minutes followed by stimulation with 5 μM 2′,3′-cGAMP. After 20 hr of stimulation the supernatant was removed and the IRF pathway reporter protein was readily measured in the cell culture supernatant using QUANTI-Luc™ (Invivogen), a luciferase detection reagent on a Spectramax i3X luminometer.
In the tables below, IC50 value ranges for exemplary compounds are given. The IC50 ranges are indicated as “A” for values less than or equal to 1 μM, “B” for values greater than 1 μM and less than or equal to 10 μM, and “C” for values greater than 10 μM.

T1 sequence (Q86WV6 whole entry R71H/G230A/H232R/R293Q): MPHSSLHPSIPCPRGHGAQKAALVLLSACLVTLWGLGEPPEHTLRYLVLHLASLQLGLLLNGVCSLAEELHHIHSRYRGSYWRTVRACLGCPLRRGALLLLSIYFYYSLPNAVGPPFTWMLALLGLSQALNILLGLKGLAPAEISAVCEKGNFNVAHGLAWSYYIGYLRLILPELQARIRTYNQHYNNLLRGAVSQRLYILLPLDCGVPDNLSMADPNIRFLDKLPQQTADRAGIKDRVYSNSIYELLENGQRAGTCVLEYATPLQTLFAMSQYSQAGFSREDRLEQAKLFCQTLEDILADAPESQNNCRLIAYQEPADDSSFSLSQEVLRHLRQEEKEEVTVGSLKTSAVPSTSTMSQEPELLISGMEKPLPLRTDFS

Question: How did the IC50 turn out when O=C(Nc1ccc2c(c1)N(c1ccccc1)C(=O)CO2)Nc1ccc2cc[nH]c2c1 [Example 183, 1-(1H-indol-6-yl)-3-(3-oxo-4-phenyl-3,4-dihydro-2H-benzo[b][1,4]oxazin-6-yl)urea] was run?
Answer: > 10 µM

Question: For NC(=O)C1COc2cc(NC(=O)Nc3ccc4cc[nH]c4c3)ccc2N1Cc1ccccc1 (centres unmarked) [Example 188, 7-(3-(1H-indol-6-yl)ureido)-4-benzyl-3,4-dihydro-2H-benzo[b][1,4]oxazine-3-carboxamide], which IC50 is on record?
Answer: 1 to 10 µM

Question: With O=C(Nc1ccc2c(c1)OCC(=O)N2Cc1ccc(O)cc1)Nc1ccc2cc[nH]c2c1 [Example 139, 1-(4-(4-hydroxybenzyl)-3-oxo-3,4-dihydro-2H-benzo[b][1, 4]oxazin-7-yl)-3-(1H-indol-6-yl)urea] as the compound, how does the IC50 read?
Answer: 1 to 10 µM

Question: O=C(Nc1ccc2c(c1)N(C(=O)c1ccccc1)CCS2)Nc1ccc2cc[nH]c2c1 [Example 57, 1-(4-benzoyl-3,4-dihydro-2H-benzo[b][1, 4]thiazin-6-yl)-3-(1H-indol-6-yl)urea] was tested. Which IC50 did it give?
Answer: > 10 µM

Question: With O=C(Nc1ccc2c(c1)OCC(=O)N2Cc1ccccc1)NC1CCC(c2ccccc2)CC1 (mixture of isomers) [Example 137, 1-(4-benzyl-3-oxo-3,4-dihydro-2H-benzo[b][1, 4]oxazin-7-yl)-3-(4-phenyl-cyclohexyl)urea] as the compound, how does the IC50 read?
Answer: 1 to 10 µM

Question: O=C(Nc1ccc2c(c1)OCC(=O)N2Cc1ccn[nH]1)Nc1ccc2cc[nH]c2c1 [Example 161, 1-(4-((1H-pyrazol-5-yl)methyl)-3-oxo-3,4-dihydro-2H-benzo[b][1, 4]oxazin-7-yl)-3-(1H-indol-6-yl)urea] was tested. Which IC50 did it give?
Answer: > 10 µM

Question: With CC1Sc2ccc(NC(=O)Nc3ccccc3)cc2N(Cc2ccccc2)C1=O (centres unmarked) [Example 32, 1-(4-benzyl-2-methyl-3-oxo-3,4-dihydro-2H-benzo[b][1, 4]thiazin-6-yl)-3-phenylurea] as the compound, how does the IC50 read?
Answer: 1 to 10 µM

Question: With O=C(Nc1ccc2c(c1)OCCO2)Nc1ccc2c(c1)N(Cc1ccccc1)C(=O)CS2 [Example 23, 1-(4-benzyl-3-oxo-3,4-dihydro-2H-benzo[b] [1,4]thiazin-6-yl)-3-(2,3-dihydrobenzo [b][1,4]dioxin-6-yl)urea] as the compound, how does the IC50 read?
Answer: 1 to 10 µM

Question: With O=C(Nc1ccc2c(c1)OCC(=O)N2Cc1ccccc1)Nc1c[nH]nc1-c1ccc(Cl)cc1 [Example 131, 1-(4-benzyl-3-oxo-3,4-dihydro-2H-benzo[b][1, 4]oxazin-7-yl)-3-(3-(4-chlorophenyl)-1H-pyrazol-4-yl)urea] as the compound, how does the IC50 read?
Answer: > 10 µM

Question: Which IC50 does the source give for O=C(Nc1ccc(F)cc1)Nc1ccc2c(c1)N(Cc1cn3ccccc3n1)C(=O)CS2 [Example 26, 1-(4-fluorophenyl)-3-(4-(imidazo [1,2-a]pyridin-2-ylmethyl)-3-oxo-3,4-dihydro-2H-benzo[b][1, 4]thiazin-6-yl)urea] here?
Answer: 1 to 10 µM

Question: O=C(Nc1ccc2c(c1)OCC(=O)N2Cc1ccncc1)Nc1ccc2cc[nH]c2c1 [Example 147, 1-(iH-indol-6-yl)-3-(3-oxo-4-(pyridin-4-ylmethyl)-3,4-dihydro-2H-benzo[b][1, 4]oxazin-7-yl)urea] was tested. Which IC50 did it give?
Answer: 1 to 10 µM

Question: With C[C@H]1c2ccc(NC(=O)Nc3ccc(F)cc3)cc2N(Cc2ccccc2)C(=O)N1C [Example 38, (S)-1-(1-benzyl-3,4-dimethyl-2-oxo-1,2,3,4-tetrahydro-quinazolin-7-yl)-3-(4-fluorophenyl)urea] as the compound, how does the IC50 read?
Answer: > 10 µM

Question: Which IC50 does the source give for O=C(Nc1ccc2c(c1)N(Cc1ccncc1)CCS2)Nc1ccc2cc[nH]c2c1 [Example 66, 1-(1H-indol-6-yl)-3-(4-(pyridin-4-ylmethyl)-3,4-dihydro-2H-benzo[b][1, 4]thiazin-6-yl)urea] here?
Answer: ≤ 1 µM

Question: For N#C/N=C(\Nc1ccc2c(c1)N(Cc1ccccc1)C(=O)CS2)Nc1ccc2cc[nH]c2c1 [Example 192], which IC50 is on record?
Answer: > 10 µM

Question: Which IC50 does the source give for O=C(Nc1ccc2c(c1)N(CC1CCCC1)CCS2)Nc1ccc2cc[nH]c2c1 [Example 67, 1-(4-(cyclopentylmethyl)-3,4-dihydro-2H-benzo[b][1, 4]thiazin-6-yl)-3-(1H-indol-6-yl)urea] here?
Answer: ≤ 1 µM

Question: With O=C(Nc1ccc2c(c1)OCC(=O)N2Cc1ccc2nonc2c1)Nc1ccc2cc[nH]c2c1 [Example 129, l-(4-(benzo[c][1,2,5]oxadiazol-5-ylmethyl)-3-oxo-3,4-dihydro-2H-benzo[b][1,4]oxazin-7-yl)-3-(1H-indol-6-yl)urea] as the compound, how does the IC50 read?
Answer: ≤ 1 µM

Question: Which IC50 does the source give for O=C1CSc2ccc(N3CCN(c4ccc5cc[nH]c5c4)CC3)cc2N1Cc1ccccc1 [Example 191, 6-(4-(1H-Indol-6-yl)piperazin-1-yl)-4-benzyl-2H-benzo[b][1,4]thiazin-3(4H)-one] here?
Answer: 1 to 10 µM

Question: With O=C(Nc1ccc2c(c1)OCC(=O)N2Cc1cc(F)cc(Cl)c1)Nc1ccc2cc[nH]c2c1 [Example 102, 1-(4-(3-chloro-5-fluorobenzyl)-3-oxo-3,4-dihydro-2H-benzo[b][1,4]oxazin-7-yl)-3-(1H-indol-6-yl)urea] as the compound, how does the IC50 read?
Answer: ≤ 1 µM

Question: O=C(Nc1ccc2c(c1)OCC(=O)N2Cc1ccc(F)cc1Cl)Nc1ccc2cc[nH]c2c1 [Example 94, 1-(4-(2-chloro-4-fluorobenzy 1)-3-oxo-3,4-dihydro-2H-benzo[b][1,4]oxazin-7-yl)-3-(1H-indol-6-yl)urea] was tested. Which IC50 did it give?
Answer: ≤ 1 µM

Question: With O=C(Nc1ccc2c(c1)CCCC2)Nc1ccc2c(c1)OCC(=O)N2Cc1ccccc1 [Example 133, 1-(4-benzyl-3-oxo-3,4-dihydro-2H-benzo[b][1, 4]oxazin-7-yl)-3-(5,6,7,8-tetrahydro-naphthalen-2-yl)urea] as the compound, how does the IC50 read?
Answer: 1 to 10 µM

Question: NC(=O)c1cccc(CN2C(=O)COc3cc(NC(=O)Nc4ccc5cc[nH]c5c4)ccc32)c1 [Example 155, 3-((7-(3-(1H-indol-6-yl)ureido)-3-oxo-2,3-dihydro-4H-benzo[b][1, 4]oxazin-4-yl)methyl) benzamide] was tested. Which IC50 did it give?
Answer: > 10 µM

Question: How did the IC50 turn out when O=C(Nc1ccccc1)Nc1ccc2c(c1)N(Cc1ccccc1)C(=O)CS2 [Example 2, 1-(4-benzyl-3-oxo-3,4-dihydro-2H-benzo[b][1, 4]thiazin-6-yl)-3-phenylurea] was run?
Answer: 1 to 10 µM

Question: With O=C(Nc1ccc2c(c1)OCC(=O)N2Cc1ccccc1)NC1CCc2ccccc2C1 (centres unmarked) [Example 135, 1-(4-benzyl-3-oxo-3,4-dihydro-2H-benzo[b][1, 4]oxazin-7-yl)-3-(1,2,3,4-tetrahydro-naphthalen-2-yl)urea] as the compound, how does the IC50 read?
Answer: 1 to 10 µM

Question: Which IC50 does the source give for O=C(Nc1ccc2c(c1)OCC(=O)N2Cc1ccccc1)Nc1ccc2cc[nH]c2c1 [Example 69, 1-(4-Benzyl-3-oxo-3,4-dihydro-2H-benzo[b][1,4]oxazin-7-yl)-3-(1H-indol-6-yl)urea] here?
Answer: ≤ 1 µM

Question: O=S(=O)(Nc1ccc2c(c1)OCCN2c1ccccc1)Nc1ccc2cc[nH]c2c1 [Example 175, N-1H-indol-6-yl-N′-(4-phenyl-3,4-dihydro-2H-1,4-benzoxazin-7-yl)sulfuric diamide] was tested. Which IC50 did it give?
Answer: 1 to 10 µM

Question: With CN1C(=O)CSc2ccc(NC(=O)Nc3ccc4cc[nH]c4c3)cc21 [Example 87, 1-(1H-indol-6-yl)-3-(4-methyl-3-oxo-3,4-dihydro-2H-benzo[b][1, 4]thiazin-6-yl)urea] as the compound, how does the IC50 read?
Answer: 1 to 10 µM

Question: Which IC50 does the source give for O=C(NCc1ccco1)Nc1ccc2c(c1)OCC(=O)N2Cc1ccccc1 [Example 130, 1-(4-benzyl-3-oxo-3,4-dihydro-2H-benzo[b][1, 4]oxazin-7-yl)-3-(furan-2-ylmethyl)urea] here?
Answer: > 10 µM

Question: CNC(=O)C(c1ccccc1)N1CCOc2ccc(NC(=O)Nc3ccc4cc[nH]c4c3)cc21 (centres unmarked) [Example 189, 2-(6-(3-(1H-indol-6-yl)ureido)-2,3-dihydro-4H-benzo[b][1,4]oxazin-4-yl)-N-methyl-2-phenylacetamide] was tested. Which IC50 did it give?
Answer: 1 to 10 µM

Question: O=C(Nc1ccc(F)cc1)Nc1ccc2c(c1)SCC(=O)N2Cc1ccccc1 [Example 52, 1-(4-benzyl-3-oxo-3,4-dihydro-2H-benzo[b][1, 4]thiazin-7-yl)-3-(4-fluorophenyl) urea] was tested. Which IC50 did it give?
Answer: 1 to 10 µM

Question: Which IC50 does the source give for O=C(Nc1ccc2c(c1)N(c1ccccc1)CCS2)Nc1ccc2cc[nH]c2c1 [Example 72, 3-(1H-Indol-6-yl)-3-(4-phenyl-3,4-dihydro-2H-benzo[b][1,4]thiazin-6-yl)urea] here?
Answer: ≤ 1 µM

Question: O=C(Nc1ccc2c(c1)N(C(CO)c1ccccc1)CCO2)Nc1ccc2cc[nH]c2c1 (centres unmarked) [Example 85, 1-(4-(2-Hydroxy-1-phenylethyl)-3,4-dihydro-2H-benzo[b][1,4]oxazin-6-yl)-3-(1H-indol-6-yl)urea] was tested. Which IC50 did it give?
Answer: 1 to 10 µM

Question: How did the IC50 turn out when O=C(Nc1ccc2c(c1)OCC(=O)N2Cc1ccc(F)c(Cl)c1)Nc1ccc2cc[nH]c2c1 [Example 111, 1-(4-(3-chloro-4-fluorobenzyl)-3-oxo-3,4-dihydro-2H-benzo[b][1,4]oxazin-7-yl)-3-(1H-indol-6-yl)urea] was run?
Answer: 1 to 10 µM

Question: Which IC50 does the source give for O=C(Nc1ccc(F)cc1)Nc1ccc2c(c1)N(Cc1ccccc1)CCS2 [Example 173, 1-(4-benzyl-3,4-dihydro-2H-benzo[b][1, 4]thiazin-6-yl)-3-(4-fluorophenyl) urea] here?
Answer: 1 to 10 µM

Question: O=C(Nc1ccc2c(c1)OCC(=O)N2CC1COCCO1)Nc1ccc2cc[nH]c2c1 (stereo not drawn) [Example 145, l-(4-((1,4-dioxan-2-yl)methyl)-3-oxo-3,4-dihydro-2H-benzo[b][1, 4]oxazin-7-yl)-3-(1H-indol-6-yl)urea] was tested. Which IC50 did it give?
Answer: 1 to 10 µM

Question: Which IC50 does the source give for O=C(Nc1ccc2c(c1)OCC(=O)N2Cc1cnc[nH]1)Nc1ccc2cc[nH]c2c1 [Example 162, 1-(4-((1H-imidazol-5-yl)methyl)-3-oxo-3,4-dihydro-2H-benzo[b][1, 4]oxazin-7-yl)-3-(1H-indol-6-yl)urea] here?
Answer: > 10 µM
